Results reported in patent publication US4002754A, “Substituted piperazinyliminorifamycins” (Gruppo Lepetit S.p.A., priority 1975, dated 1977).
Values after ≈ are worked out from the molar mass of the structure shown.

Columns and labels:
[1] = system: Mycobacterium tuberculosis H37 Rv; assay: minimal inhibitory concentration (antimicrobial activity); format: cell-based; conditions: H37RV, read-out: minimal inhibitory concentration
Source text: (§1) The unexpected biological characteristics of the novel rifamycins have been evidenced by considering the survival time after a daily administration of rifampicin and a once-a-week administration of the same dose level per os of 3-[4-(2-propenyl)-1-piperazinyl]iminorifamycin SV (hereinafter referred to as "propenyl derivative") to mice infected with Mycobacterium tuberculosis H37 Rv. […] For instance, the value of the minimal inhibitory concentration of propenyl derivative against Mycobacterium tuberculosis H37 Rv is 0.02 μg/ml while that of rifampicin is 0.5 μg/ml.

[2] = system: Mycobacterium tuberculosis H37 Rv; assay: survival time of mice infected with Mycobacterium tuberculosis H37 Rv; format: in vivo; conditions: once-a-week per os vs daily rifampicin at same dose level; total amount about 1/6
Source text: as §1

[3] = in vivo; conditions: mouse
[4] = system: Staphylococcus aureus; assay: experimental Staphylococcus aureus infection in mice; format: in vivo; conditions: po
Protocol: In fact, propynyl derivative (i.e. 3-[4-(2-propynyl)-1-piperazinyl]iminomethylrifamycin SV) in representative experiments has shown an ED50 value of 0.20 mg/kg p.o. The toxicity is very low, the LD 50 value in mice being higher than 2000 mg/kg p.o. The new compounds are suitably administered in usual pharmaceutical combinations with conventional carriers.

[5] = toxicity (LD50) in mice; conditions: in words

SMILES	MIC [1]	survival time [2]	LD50 ([3]; ip)	LD50 ([3]; po)	ED50 [4]	toxicity [5]
C=CCN1CCN(N=Cc2c3c(O)c4c(O)c(C)c5c(c4c2O)C(=O)C(C)(OC=CC(OC)C(C)C(OC(C)=O)C(C)C(O)C(C)C(O)C(C)C=CC=C(C)C(=O)N3)O5)CC1 (stereo not shown) [propenyl derivative, 3-[4-(2-Propenyl)-1-piperazinyl]iminomethylrifamycin SV]	0.02 µg/mL (≈ 0.0236 µM)	about the same survival time	~700 mg/kg	~1500 mg/kg	–	–
C#CCN1CCN(N=Cc2c3c(O)c4c(O)c(C)c5c(c4c2O)C(=O)C(C)(OC=CC(OC)C(C)C(OC(C)=O)C(C)C(O)C(C)C(O)C(C)C=CC=C(C)C(=O)N3)O5)CC1 (stereo not shown) [propynyl derivative, 3-[4-(2-Propynyl)-1-piperazinyl]iminomethylrifamycin SV]	–	–	–	> 2000 mg/kg	0.2 mg/kg	very low
